“Also recorded” adds a separate entry of the source.
How the values were obtained:
Plx2A [1] = target: T1, Plx2A (Paenibacillus larvae, UniProt M9V3B7); conditions: cited from earlier work
[2] = tested on: model insect cell culture; set-up: method as in PMID 34564612; conditions: cited from earlier work
Plx2A [3] = target: T1, Plx2A; test: biochemical
Plx2A [4] = target: T1, Plx2A; test: biochemical; type: binding
Vis toxin = tested on: Vis toxin; set-up: method as in PMID 26352925; conditions: cited from earlier work
C3larvin = tested on: C3larvin; set-up: method as in PMID 25477523; conditions: read-out: Ki (C3larvin mART enzymatic activity); cited from earlier work
C3bot1 = conditions: cited from earlier work
[5] = tested on: P. larvae ERIC I-infected honey bee larva; set-up: method as in PMID 34564612; conditions: P. larvae ERIC I infection; cited from earlier work
Escherichia coli = tested on: Escherichia coli; set-up: method as in PMID 34740095; conditions: cited from earlier work
Pseudomonas aeruginosa = tested on: Pseudomonas aeruginosa; set-up: method as in PMID 34740095; conditions: cited from earlier work
Staphylococcus aureus = tested on: Staphylococcus aureus; set-up: method as in PMID 34740095; conditions: cited from earlier work

| SMILES | Inhibition of Plx2A GH activity (Plx2A [1]) | Protection of cultured insect cells from Plx2A intoxication [2] | IC50 (Plx2A [3]) | Kd (Plx2A [4]) | other results |
| --- | --- | --- | --- | --- | --- |
| COc1ccc(-c2cc(=O)c3c(O)cc(O)cc3o2)cc1 [Acacetin, 5,7-dihydroxy-2-(4-methoxyphenyl)-4H-chromen-4-one] | strong inhibitors | protected the cultured cells from Plx2A intoxication | – | – | Concentration that protected the cell culture against Plx2A cytotoxicity (prevented bi-nucleated cells) [2]: 30 µM |
| O=c1cc(-c2ccccc2)oc2cc(O)c(O)c(O)c12 [Baicalein, 5,6,7-trihydroxy-2-phenyl-4H-chromen-4-one] | strong inhibitors | not Baicalein | – | – | – |
| O=c1cc(-c2ccccc2)oc2cc(O)cc(O)c12 [Chrysin, 5,7-dihydroxy-2-phenyl-4H-chromen-4-one] | – | – | 49.2 ± 2.5 µM | 40.6 ± 4.7 µM | – |
| CS(=O)(=O)NC[C@@H]1CCCN(c2ncnc3[nH]ncc23)C1 [Inhibitor M3, N-{[(3R)-1-{1H-pyrazolo[3,4-d]pyrimidin-4-yl}piperidin-3-yl]methyl}methanesulfon amide] | potent inhibitor; also recorded: strong inhibitors | protected the cultured cells from Plx2A intoxication | 216 ± 22.7 µM | – | Inhibition of Vis toxin (Vis toxin): effective inhibitor; Ki (C3larvin): 11 µM; Inhibition of C3bot1 (C3bot1): effective inhibitor; Protection of honey bee larva / reduction of larval mortality [5]: failed to protect honey bee larva; Concentration that protected the cell culture against Plx2A cytotoxicity (prevented bi-nucleated cells) [2]: 300 µM |
| COc1cc(-c2cc(=O)c3c(O)c(OC)c(O)cc3o2)ccc1O [Jaceosidin, 5,7-dihydroxy-2-(4-hydroxy-3-methoxyphenyl)-6-methoxy-4H-chromen-4-one] | – | – | 73.9 ± 4.7 µM | 24.1 ± 2.9 µM | – |
| O=c1c(O)c(-c2ccc(O)cc2)oc2cc(O)cc(O)c12 [Kaempferol, 3,5,7-trihydroxy-2-(4-hydroxyphenyl)-4H-chromen-4-one] | – | – | 79.9 ± 6 µM | 37.3 ± 3.6 µM | – |
| O=c1cc(-c2ccc(O)c(O)c2)oc2cc(O)cc(O)c12 [Luteolin, 2-(3,4-dihydroxyphenyl)-5,7-dihydroxy-4H-chromen-4-one] | – | – | 68.1 ± 1.8 µM | 24 ± 1.5 µM | – |
| O=c1c(O)c(-c2ccc(O)cc2O)oc2cc(O)cc(O)c12 [Morin, 2-(2,4-dihydroxyphenyl)-3,5,7-trihydroxy-4H-chromen-4-one] | – | – | 109 ± 4.8 µM | 32.8 ± 11.7 µM | – |
| O=c1c(O)c(-c2ccc(O)c(O)c2)oc2cc(O)cc(O)c12 [Quercetin, 2-(3,4-dihydroxyphenyl)-3,5,7-trihydroxy-4H-chromen-4-one] | – | – | 24.3 ± 0.8 µM | 19.9 ± 0.4 µM | Antibacterial activity (Escherichia coli): potent antibacterial activity; Antibacterial activity (Pseudomonas aeruginosa): potent antibacterial activity; Ki (Plx2A [3]): 18 ± 2.8 µM; Mechanism of inhibition of Plx2A GH activity (Lineweaver-Burk) (Plx2A [3]): non-competitive inhibition; also recorded: non-competitive mechanism; Antibacterial activity (Staphylococcus aureus): potent antibacterial activity |

Reference: publication PMC8704661, “A Structural Approach to Anti-Virulence: A Discovery Pipeline” (Microorganisms, 2021)
